Common to all, as to assay type: cell-based
The subject of test [1] is BRCA1, FANCD2, EME1 and MUS81. Briefly: RT-PCR and immunoblotting of DNA ICL repair factors. The conditions noted are these: DU145 cells, 18 h. As for the experimental part:
Whole cell lysates were prepared by incubation of harvested, trypsinised cells with CelLytic™ lysis buffer (Sigma-Aldrich) supplemented with 1× protease and 1× phosphatase inhibitors (Roche). Protein quantification was carried out using a protein assay kit (Bio-Rad). 40 μg of the lysates were denatured by heating for 5 min at 95° C. in sample buffer containing 100 mM Tris-Cl (pH 6.8), 4% SDS, 10% 2-mercaptoethanol, 20% glycerol, and 0.02% bromophenol blue. Precision Plus Protein Dual colour standards (Bio-Rad) were used as a molecular weight reference. For the detection of STAT3, pSTAT3, α/β tubulin, cleaved PARP, Bcl-2, Bcl-xL, FANCD2, BRCA1, EME1 and MUS81, proteins were separated on a NuPAGE 7% Tris-acetate gel (Life Technologies) and subsequently transferred to polyvinylidene difluoride membranes (Immobilon®-P transfer membrane; Millipore). […]
After drug-treatment cells were harvested by trypsinisation followed by centrifugation. […] TaqMan Gene Expression Assays (Life Technologies) for FANCD2, BRCA1, EME1 and MUS81 were used to quantify changes in gene expression. […] Fold change was calculated using the comparative CT method normalizing to GAPDH expression.
RT-PCR. […] TaqMan Gene Expression Assays (Life Technologies) for FANCD2, BRCA1, EME1 and MUS81 were used to quantify changes in gene expression. […] Fold change was calculated using the comparative CT method normalizing to GAPDH expression.
For orientation: In western blotting, separated proteins are transferred to a membrane and probed.

The test system of test [2] is DU145 cells. Nature of the test: Colony formation assay with paclitaxel. The following applies: 0.4 μM IE-8 + 0.003 μM paclitaxel, 10 days. As for the experimental part:
DU145 cells were seeded at 1000 cells/well in 6-well plates and allowed to adhere overnight. Cells were treated after seeding with IE-8, paclitaxel, and a combination thereof, and incubated without any further manipulation for 10 days until the control (untreated) wells had <200 colonies formed. Colonies were fixed with ice-cold 100% Methanol, washed with PBS, stained with crystal violet (0.5% w/v) for 5 minutes and counted using a colony-counting function of the Fusion 15.12 software.

The subject of test [3] is A2780-cisplatin resistant spheroids. Briefly: CellTiter-Glo 3D cell viability assay, A2780-cisplatin resistant spheroids. The conditions noted are these: 96 h exposure, 3D CellTiter-Glo. On the procedure:
For cell spheroid formation, HCT116-oxaliplatin resistant cells, A2780-cisplatin resistant cells, and HT1080 cells were seeded in Corning® Spheroid opaque-walled 96 well Microplates (ultra-low attachment; Nuclon™ Sphera™, Thermofisher) at densities of 2000 cells/well in 100 μl of cell solution and allowed to grow for 4 days, before any manipulation.
At the end of drug incubation, both the plates and the CellTitre-Glo® reagent (previously thawn overnight in the fridge) were equilibrated at room temperature for at least 30 min. Subsequently, 100 μl of cell solution were carefully removed from each well, without disrupting the spheroid and equal volume of CellTitre-Glo® reagent was added. Cell lysis was performed by vigorously shaking the plate for 5 min. To stabilize the luminescent signal, the plate was incubated in the dark at RT for another 30 min before luminescence was recorded on a plate reader. The cell viability of treated samples was normalised to the untreated controls.
The cytotoxicity studies in spheroids were conducted using the CellTiter-Glo® 3D Cell viability assay (Promega) following the instructions of the manufacturer.
(In general: Cellular ATP, detected with luciferase, serves as a proxy for viable cell number.)

The subject of test [4] is DU145 cells. Nature of the test: Live cell microscopy. The following applies: DU145, increasing concentration over 24 h. On the procedure: 5×10^4 DU145 cells were seeded in 8-well chamber slides (Ibidi, Martinsried, Germany). After 24 h, cells were treated with the denoted concentration (μM) IE-8 and intracellular drug accumulation was imaged at 3 h intervals on a live cell microscope (Visitron Systems, Puchheim, Germany) using a 40× oil immersion DIC objective and VisiView® software.
LEDs were used for widefield DIC and fluorescence (436/20 nm excitation and 480/40 nm bandpass filter for (CFP) fluorescence illumination (Visitron Systems). Images were taken with a sCMOS 4.2MPxl digital camera.

As to `COc1cc(/C=C2\CN(c3ccccc3)C/C(=C\c3cc(OC)c(OC)c(OC)c3)C2=O)cc(OC)c1OC` [IE-8, 3,5-Di(3,4,5-trimethoxybenzylidene)-1-phenylpiperidin-4-one], the “expression of BRCA1, FANCD2, EME1 and MUS81 (mRNA and protein)” value in test [1] was “markedly downregulated”. Also, the colony formation entry in the test with DU145 cells [2] is listed as “no colonies were formed”. In addition, the half-inhibitory concentration (IC50) – broadly, the concentration that gives 50% inhibition – in test [3] turned out to be 3.01 ± 0.41 µM. Further, the cytoplasmic vacuolisation result with DU145 cells [4] is “induced cytoplasmic vacuolisation”.

For the origin of these results see patent US11964943B2, “3,5-diarylidenyl-n-substituted-piperid-4-one-derived inhibitors of Stat3 pathway activity and uses thereof” (priority 2017, dated 2024).
